Data as given in US11160820B2 (Dalian Minzu University, priority 2019, dated 2021).
Like-named read-outs stand apart in the source and are kept apart here.

What was measured:
[1] = test system: mice with LPS/D-GalN-induced acute hepatic failure; details: for Catalase (CAT) / Glutathione (GSH) / Malondialdehyde (MDA) / Superoxide dismutase (SOD): liver tissue homogenate
Protocol: (§1) The mice of the blank group and the model group were given the equivalent dose of normal saline by gavage for three consecutive days before the establishment of the model. […] Upon the third day of gavage, the mice of the blank group were given the equivalent dose of normal saline by intraperitoneal injection, and the mice of the model group and the groups with low, medium and high doses were given the LPS and the D-GalN by intraperitoneal injection. After 6 hours of modeling, blood and liver tissues were taken. Whole blood was centrifuged (4000 rmp×10 min), and then the supernatant was taken. The liver tissue was washed with normal saline, one-fourth of the large liver lobe was stored in a formalin solution, and the rest of the liver was stored in a refrigerator of −80° C.
The liver tissue homogenate was detected with glutathione (GSH), superoxide dismutase (SOD), malondialdehyde (MDA) and catalase (CAT) kits. The experiment followed the instructions of kits available from Nanjing Jiancheng Bioengineering Institute.
(§2) All experimental data were analyzed by a Graphpad Prism 7.0 software. Statistical analysis between the two groups was conducted by a t test. Variance analysis was conducted by Ordinary one-way ANOVA. A Multiple Comparison method was used for conducting pairwise comparison among multiple groups. When the P value was <0.05, it was considered that there was statistical difference among the data of each group.

[2] = test system: mice with LPS/D-GalN-induced acute hepatic failure; details: treatment group administrated with the AFG
Protocol: as §1

[3] = test system: mice with LPS/D-GalN-induced acute hepatic failure
Protocol: as §1
The liver tissue was soaked in a 10% formalin solution, washed under running water, dehydrated with ethanol solutions of low to high concentrations, xylene solution, embedded with paraffin, sectioned, stained with H&E, and observed under a microscope for the pathological morphology of the liver tissue.

[4] = test system: mice with LPS/D-GalN-induced acute hepatic failure; remark: listed apart in the source
Protocol: as §1
The in vitro liver tissue was spread on a white paperboard, observed for the appearance of the liver tissue, and photographed.

[5] = test system: mice with LPS/D-GalN-induced acute hepatic failure; details: for Aspartate transferase (AST) / Alanine transferase (ALT): serum, 6 hours after modeling
Protocol: as §1
Plasma was taken, and determined with alanine transaminase (GPT) and aspartate transferase (GOT) kits. The experiment followed the instructions of the kits available from Nanjing Jiancheng Bioengineering Institute.
as §2

[6] = test system: mice with acute hepatitis/hepatic failure caused by LPS/D-GalN; details: through a TLR4 signaling pathway; International Immunopharmacology, 2018, 61:266-276; cited from earlier work
[7] = groups with medium and high doses of the AFG, P<0.05
[8] = AFG 25 mg/kg by gavage for 3 days before LPS/D-GalN
[9] = AFG 50 mg/kg by gavage for 3 days before LPS/D-GalN
[10] = AFG 100 mg/kg by gavage for 3 days before LPS/D-GalN
[11] = group with the high dose of the AFG, P<0.01

N=C(N)NCCC[C@H](NCC(=O)[C@@H](O)[C@H](O[C@H]1O[C@H](CO)[C@@H](O)[C@H](O)[C@H]1O)[C@H](O)CO)C(=O)O [AFG, argininyl fructosy glucose]
level of CAT compared with the model group [1, 7]: increased significantly
level of MDA compared with the model group [1, 7]: increased significantly
level of SOD compared with the model group [1, 7]: increased significantly
Catalase (CAT) [1, 8]: 34.01 ± 2.75
Glutathione (GSH) [1, 8]: 51.91 ± 3.29
Malondialdehyde (MDA) [1, 8]: 133.37 ± 5.38
Superoxide dismutase (SOD) [1, 8]: 11.48 ± 1.77
Catalase (CAT) [1, 9]: 51.66 ± 6.19
Glutathione (GSH) [1, 9]: 67.94 ± 3.58
Malondialdehyde (MDA) [1, 9]: 104.00 ± 3.13
Superoxide dismutase (SOD) [1, 9]: 20.98 ± 3.72
Catalase (CAT) [1, 10]: 61.44 ± 8.96
Glutathione (GSH) [1, 10]: 136.00 ± 6.90
Malondialdehyde (MDA) [1, 10]: 94.44 ± 6.87
Superoxide dismutase (SOD) [1, 10]: 26.54 ± 2.93
number of apoptotic cells (TUNEL) compared with the model group [2]: significantly reduced
H&E stained liver sections compared with the model group ([3]; group with the high dose of the AFG): the cells had relatively complete structures
H&E stained liver sections compared with the model group ([3]; group with the medium dose of the AFG): cellular necrosis was significantly improved
appearance of the liver, protection effect ([4]; group protected with the high dose): the protection effect was obvious
appearance of the liver ([4]; with the increase of the protection dose): gradually tended to be of a normal state
improvement of acute hepatic failure caused by the combination of LPS and D-GalN ([5]; AFG in the range from 50 mg/kg to 100 mg/kg, overall conclusion): can significantly improve the acute hepatic failure
level of ALT in the serum compared with the model group [5, 11]: significantly decreased
level of AST in the serum compared with the model group [5, 11]: significantly decreased
Aspartate transferase (AST) ([5]; AFG 25 mg/kg by gavage for 3 days before LPS 40 μg/kg + D-GalN 700 mg/kg i.p.): 260.52 ± 5.58
Alanine transferase (ALT) [5, 8]: 187.45 ± 3.48
Alanine transferase (ALT) [5, 9]: 116.13 ± 3.37
Aspartate transferase (AST) [5, 9]: 146.43 ± 0.93
Alanine transferase (ALT) [5, 10]: 71.90 ± 5.97
Aspartate transferase (AST) [5, 10]: 80.48 ± 5.09

CC(C)=CCC[C@](C)(O[C@@H]1O[C@H](CO)[C@@H](O)[C@H](O)[C@H]1O)[C@H]1CC[C@]2(C)[C@@H]1[C@H](O)C[C@@H]1[C@@]3(C)CC[C@H](O)C(C)(C)[C@@H]3[C@@H](O[C@@H]3O[C@H](CO)[C@@H](O)[C@H](O)[C@H]3O)C[C@]12C [ginsenoside Rg1]
protective role on mice with acute hepatitis/hepatic failure caused by LPS/D-GalN [6]: plays a protective role
